Laboratory results as given in ChEMBL document CHEMBL1201862, “PubChem BioAssay data set” (2004).
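Grown in 96-well plates, cells were treated for 48 hours with each compound at five concentrations. Insufficient inhibition: endpoint recorded as highest concentration tested. The concentration for 50% growth inhibition is given as GI50.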 Calls of active or inactive are those of the source. Rule as the data show it: active = GI50 up to about 1.1 µM and inactive = higher.

Columns and labels:
Assay in all cases: DTP human tumour cell line panel, 48 h
[1] = test system: CAKI-1
[2] = test system: SF-295
[3] = test system: SNB-19
[4] = test system: 786-0
[5] = test system: Malme-3M
[6] = test system: TK-10
[7] = test system: OVCAR-8
[8] = test system: A498
[9] = test system: U-251
[10] = test system: NCI-H522
[11] = test system: UACC-257
[12] = test system: SN12C
[13] = test system: COLO 205
[14] = test system: SR
[15] = test system: IGROV-1
[16] = test system: KM12
[17] = test system: SF-539
[18] = test system: LOX IMVI

Measured: GI50

CN(C)NC(=O)/C(=C/c1ccc(Cl)cc1)NC(=O)c1ccccc1
inactive: [1] > 100 µM | [2] > 100 µM | [3] > 100 µM | [4] > 100 µM | [5] > 100 µM | [6] > 100 µM | [7] > 100 µM | [8] > 100 µM | [9] > 100 µM | [10] 40.7 µM | [11] > 100 µM | [12] > 100 µM | [13] 45.2 µM | [14] 39.9 µM | [15] > 100 µM | [16] > 100 µM | [17] > 100 µM | [18] 48.3 µM

CN1CC[C@]2(C)c3cc(O)ccc3CC3CCCC1C32C (stereo partly specified)
inactive: [1] > 100 µM | [2] > 100 µM | [3] > 100 µM | [4] > 100 µM | [5] > 100 µM | [6] > 100 µM | [7] > 100 µM | [8] > 100 µM | [9] > 100 µM | [10] > 100 µM | [11] > 100 µM | [12] > 100 µM | [13] > 100 µM | [14] > 100 µM | [15] > 100 µM | [16] > 100 µM | [17] > 100 µM | [18] > 100 µM

COC(=O)c1cc2c3c(ccc2[nH]1)N(C(=O)c1cc2c4c(ccc2[nH]1)N(C(=O)c1cc2c5c(ccc2[nH]1)N(C(N)=O)CC5)CC4)CC3
inactive: [1] 2 µM | [2] 3.12 µM | [3] 2.61 µM | [4] 3.05 µM | [5] 1.24 µM | [6] 13.1 µM | [8] 1.29 µM | [9] 2.17 µM | [10] 1.61 µM | [11] > 22.6 µM | [12] 2.97 µM | [13] 2.72 µM | [14] 5.58 µM | [15] 3.37 µM | [16] 6.82 µM | [17] 3.6 µM | [18] 1.88 µM

Cc1ccc(C(=O)C(C)N)cc1 (stereo unspecified)
inactive: [1] > 100 µM | [2] > 100 µM | [3] > 100 µM | [4] > 100 µM | [5] > 100 µM | [6] > 100 µM | [7] > 100 µM | [8] > 100 µM | [9] > 100 µM | [10] > 100 µM | [11] > 100 µM | [12] > 100 µM | [13] > 100 µM | [14] > 100 µM | [15] > 100 µM | [16] > 100 µM | [17] > 100 µM | [18] > 100 µM

O=C(O)C12C3CCC(C3)C1(C(=O)O)C1CCC2C1 (stereo unspecified)
inactive: [1] > 100 µM | [2] > 100 µM | [3] > 100 µM | [4] > 100 µM | [5] > 100 µM | [6] > 100 µM | [7] > 100 µM | [8] > 100 µM | [10] 14.7 µM | [11] > 100 µM | [12] > 100 µM | [13] 33 µM | [14] 60.3 µM | [15] > 100 µM | [16] > 100 µM | [18] 23.7 µM

CC(=O)OCC1OC(n2c(=O)[nH]c(=O)c3nn[nH]c32)C(OC(C)=O)C(OC(C)=O)C1OC(C)=O (stereo unspecified)
inactive: [1] > 100 µM | [2] > 100 µM | [3] > 100 µM | [4] > 100 µM | [5] > 100 µM | [6] > 100 µM | [7] > 100 µM | [8] > 100 µM | [9] > 100 µM | [10] > 100 µM | [11] > 100 µM | [12] > 100 µM | [13] > 100 µM | [14] > 100 µM | [15] > 100 µM | [18] > 100 µM

Cc1ccc(/C=C(\NC(=O)c2ccccc2)c2nc3ccccc3[nH]2)cc1
inactive: [2] 36.6 µM | [3] 39.4 µM | [4] 39.3 µM | [5] 45.5 µM | [6] > 100 µM | [7] 43.8 µM | [8] 38 µM | [9] 41.2 µM | [10] 42.2 µM | [11] 35.3 µM | [12] 61 µM | [13] 48.2 µM | [14] 37.4 µM | [15] > 100 µM | [16] 40.6 µM | [17] > 100 µM

Oc1ccc(-c2n[nH]c(S)n2)cc1
inactive: [1] > 100 µM | [2] > 100 µM | [3] > 100 µM | [4] > 100 µM | [5] > 100 µM | [6] > 100 µM | [7] > 100 µM | [8] > 100 µM | [9] > 100 µM | [10] > 100 µM | [11] > 100 µM | [12] > 100 µM | [13] > 100 µM | [14] > 100 µM | [15] > 100 µM | [16] > 100 µM | [17] > 100 µM
